{
  "source": "patent EP0232893A2",
  "about": "“Antibiotics of the streptogramine type, a microbiological process for their preparation and their use as medicaments and food additives” (HOECHST AKTIENGESELLSCHAFT, priority 1986, dated 1987)",
  "experiment": "Feeding trials in animals, growth promotion",
  "type": "in vivo, Mastgeflügel, Schweinen, Mastrindern, Schafen und Kaninchen",
  "details": "e.g. fattening poultry, pigs, fattening cattle, sheep, rabbits",
  "from_the_text": "Dies gilt auch für die einzelnen Komponenten, insbesondere für das Neoviridogrisein IV, für das ein wachstumsfördernder -Effekt bisher nicht beschrieben war. Auch die Legeleistung von Geflügel, insbesondere das Eigewicht und die Milchleistung von Milchkühen, -schafen und -ziegen wird durch den Antibiotikakomplex oder seine einzelnen Komponenten positiv beeinflußt.\nZur Erzielung des Effekts verwendet man Konzentrationen von 2 - 100 ppm, vorzugsweise 2 - 50 ppm, insbesondere 5 - 20 ppm, bezogen auf Alleinfutter. Entsprechend höher sind die Konzentrationen, wenn die Antibiotika als Zusatz zu Beifutter verabreicht werden.",
  "note": "*1 amine or outer side, *2 acyl side, *3 side chain or, on linkers, in order; H or OH if unused. Where a SMILES comes first, the peptide text is derived from it. Bridges are numbered along the chain shown (N, C = ends). [ ]: non-standard residue; d: D form. The star is where a group is joined. X1 = CC(C)[C@H](C)[C@@H](C(=O)[*:2])N(C)[*:1]; d(cisHyp) = O=C(O)[C@H]1C[C@@H](O)CN1; Picolinoyl(3-OH) = O=C(c1ncccc1O)*; NMePhg = CN[C@H](C(=O)O)c1ccccc1; Sar = CNCC(=O)O",
  "data": [
    {"compound": "CC(C)C[C@H]1NC(=O)[C@@H](NC(=O)c2ncccc2O)[C@@H](C)OC(=O)[C@H](c2ccccc2)N(C)C(=O)[C@H](C)NC(=O)[C@H]([C@@H](C)C(C)C)N(C)C(=O)CN(C)C(=O)[C@H]2C[C@@H](O)CN2C1=O", "note": "[Neoviridogrisein IV] ({Picolinoyl(3-OH)}-T[dL][d(cisHyp)][Sar][X1]A[NMePhg]; ester 1-C)", "values": [
      {"measurement": "wachstumsfördernde Wirkung", "result": "ausgeprägte wachstumsfördernde Wirkung"}
    ]}
  ]
}
